From US20150057363A1, “TREATMENT OF METHYLMALONIC ACIDURIA, ISOVALERIC ACIDURIA, AND OTHER ORGANIC ACIDURIAS WITH TOCOTRIENOL QUINONES” (priority 2011, published 2015)
pEC50: −log10 of the molar value.

Key:
[1] = system: rats; conditions: rat, in vivo
Protocol: (§1) The particular dosage appropriate for a specific patient is determined by dose titration. […] This lack of dose-proportionality may be due to decreased absorption since there is no change in t1/2 over dose range. Alpha-tocotrienol quinone tested in rats was safe when given acutely up to 2000 mg/kg.
The starting dose can be estimated based on the United States Food and Drug Administration guidelines titled “Estimating the Maximum Safe Starting Dose in Initial Clinical Trials for Therapeutics in Adult Healthy Volunteers” (July 2005) as well as the International Conference on Harmonisation of Technical Requirements for Registration of Pharmaceuticals for Human Use (ICH) guidelines titled “Guidance on Non-clinical Safety Studies for the Conduct of Human Clinical Trials and Marketing Authorization for Pharmaceuticals” (July 2008). Per ICH guidelines, predicted exposures from the starting dose should not exceed 1/50th the NOAEL (No-Adverse-Observed-Effect-Level) in the more sensitive species on a mg/m^2 basis. Following a single oral dose of alpha-tocotrienol quinone, the NOAEL was established to be 500 mg/kg for the female rat, i.e. 3,000 mg/m2. This dosage would be equivalent to 81 mg/kg in an adult human. 1/50th of 81 mg/kg is 1.6 mg/kg, i.e. 110 mg for a 70 kg adult, or 16 mg for a 10 kg child. This dose can be administered once, twice, or three times daily.

[2] = Blood-brain barrier crossing in mice; assay type: in vivo
[3] = system: MMA fibroblasts; assay: MMA cell line assay: rescue of BSO-stressed fibroblasts (cell viability, Calcein AM); assay type: cell-based; conditions: Homo sapiens, Fibroblast; fibroblasts from MMA patient stressed with 25 μM BSO; Calcein AM readout; read-out: ED50 (protection of cell viability)
Protocol: Alpha-Tocotrienol quinone, its redox-silent version (the bis-Boc protected corresponding hydroquinone), and solvent controls were tested for their ability to rescue cells from MMA fibroblasts of the patient diagnosed with MMA, when the cells were stressed by addition of L-buthionine-(S,R)-sulfoximine (BSO), as described in Jauslin et al., Hum. Mol. Genet. 11(24):3055 (2002), Jauslin et al., FASEB J. 17:1972-4 (2003), and International Patent Application WO 2004/003565. EC50 concentrations of test compound and its redox-silent version were determined and compared. The following compound, 2-((6E,10E)-3-hydroxy-3,7,11,15-tetramethylhexadeca-6,10,14-trienyl)-3,5,6-trimethyl-bis(t-butyloxycarbonyl)benzene-1,4-diol, the bis-Boc protected hydroquinone form of alpha-tocotrienol quinone, was used as the “redox-silent” alpha tocotrienol quinone, or αTTQ-RS.
DMEM (Dulbecco's Modified Eagle Medium)—No Glucose, No pyruvate—GIBCO®—Catalog number 11966-025 from Invitrogen. Fetal Calf Serum was obtained from PAA Laboratories. Basic fibroblast growth factor and epidermal growth factor were purchased from PeproTech. Penicillin-streptomycin-glutamine mix, L-buthionine (S,R)-sulfoximine, and insulin from bovine pancreas were purchased from Sigma. Calcein AM was purchased from Molecular Probes. […]

[4] = Pharmacokinetics of alpha-tocotrienol quinone in rats; assay type: in vivo, rat
Protocol: as §1

[5] = Pharmacokinetics of alpha-tocotrienol quinone in fasted dogs; conditions: dog, in vivo, po, 10 mg/kg
Protocol: as §1

CC(C)=CCC/C(C)=C/CC/C(C)=C/CCC(C)(O)CCC1=C(C)C(=O)C(C)=C(C)C1=O (stereo not drawn) [alpha-tocotrienol quinone, Alpha-tocotrienol quinone]
safe when given acutely up to [1]: up to 2000 mg/kg
NOAEL on mg/m2 basis ([1]; po): 3,000 mg/m2
crosses the blood-brain barrier [2]: crosses the blood-brain barrier
pEC50 [3]: 7.64
dose-proportionality of AUC ([4]; increase in doses of 2.4: 6: 10: 20 gives increase in AUCs of 1.5: 2.8: 4.0: 6.7): less than dose-proportionality
bioavailability ([4]; rat, in vivo, 10 mg/kg): ~90%
bioavailability [5]: ~16%
